US10125111B2, “Benzofuran compounds for the treatment of hepatitis C” (BRISTOL-MYERS SQUIBB COMPANY, priority 2015, dated 2018)
Read-outs that look alike come from different tables or passages of the source.

Test system: genotype 1b (Con-1) HCV replicon
Experiment: HCV Replicon Luciferase Assay
Format: cell-based
Conditions: Hepatitis C virus, 72 h, Huh-7 genotype 1b replicon, Renilla luciferase, 3 days incubation
Method: The cell lines used to evaluate compounds consist of a human hepatocyte derived cell line (Huh-7) that constitutively expresses a genotype 1b (Con-1) HCV replicon or a genotype 1b (Con-1) HCV replicon with an asparagine replacing the cysteine at amino acid 316, or a genotype 2a (JFH-1) replicon, containing a Renilla luciferase reporter gene. These cells were maintained in Dulbecco's modified Eagle medium (DMEM) containing 10% FBS, 100 U/mL penicillin/streptomycin and 1.0 mg/mL G418.
To evaluate compound efficacy, titrated compounds were transferred to sterile 384-well tissue culture treated plates, and the plates were seeded with HCV replicon cells (50 μL at a density of 2.4×10^3 cells/well) in DMEM containing 4% FBS (final DMSO concentration at 0.5%). After 3 days incubation at 37° C., cells were analyzed for Renilla Luciferase activity using the EnduRen substrate (Promega cat #E6485) according to the manufacturer's directions. Briefly, the EnduRen substrate was diluted in DMEM and then added to the plates to a final concentration of 7.5 μM. The plates were incubated for at least 1 h at 37° C. then read on a Viewlux Imager (PerkinElmer) using a luminescence program. The 50% effective concentration (EC50) was calculated using the four-parameter logistic Formula noted above.
Compound EC50 data is expressed as A: <100 nM; B=100-1000 nM; C>1000 nM).

Row | SMILES | EC50 (read-out: EC50 1b (class)) [µM] | EC50 (read-out: EC50 (uM) 1b) [µM]
1 | CNC(=O)c1c(-c2ccc(F)cc2)oc2cc(N(CC(F)F)S(C)(=O)=O)c(-c3cccc(C(=O)NC(CF)(CF)CF)c3)cc12 [Compound 7004] | < 0.1 | 
2 | C#CC(C)(CC)NC(=O)c1cccc(-c2cc3c(C(=O)NC)c(-c4ccc(F)cc4)oc3cc2N(CCCF)S(C)(=O)=O)c1 (centres unmarked) [Compound 4029] | < 0.1 | 0.0059
3 | CNC(=O)c1c(-c2ccc(F)cc2)oc2cc(N(CCF)S(C)(=O)=O)c(-c3cccc(C(=O)N4CCC(O)C4)c3)cc12 (centres unmarked) [Compound 3039] | > 1 | 1.61
4 | CNC(=O)c1c(-c2ccc(F)cc2)oc2cc(N(CCF)S(C)(=O)=O)c(-c3cccc(C(=O)N4CCCC4c4ccc(Cl)cc4)c3)cc12 (centres unmarked) [Compound 3018] | < 0.1 | 
5 | CNC(=O)c1c(-c2ccc(F)cc2)oc2cc(N(CCCF)S(C)(=O)=O)c(-c3cccc(C(=O)N[C@@H](C)C(F)(F)F)c3)cc12 [Compound 4021] | < 0.1 | 
6 | CNC(=O)c1c(-c2ccc(F)cc2)oc2cc(NCCCF)c(-c3cccc(C(=O)NC(C)(C)C(F)(F)F)c3)cc12 [Compound 5005] | < 0.1 | 
7 | [2H]C([2H])([2H])C(NC(=O)c1cccc(-c2cc3c(C(=O)NC)c(-c4ccc(F)cc4)oc3cc2N(CCF)S(C)(=O)=O)c1)(C([2H])([2H])[2H])C([2H])([2H])[2H] [Compound 3006] | < 0.1 | 
8 | CNC(=O)c1c(-c2ccc(F)cc2)oc2cc(N(CCF)S(C)(=O)=O)c(-c3cccc(C(=O)NC(C)(C)C)c3)cc12 [Compound 3016] | < 0.1 | 
9 | CNC(=O)c1c(-c2ccc(F)cc2)oc2cc(N(CCC(F)(F)F)S(C)(=O)=O)c(-c3cccc(C(=O)NC(C)(C)CF)c3)cc12 [Compound 9007] | < 0.1 | 
10 | CCC1CCCN1C(=O)c1cccc(-c2cc3c(C(=O)NC)c(-c4ccc(F)cc4)oc3cc2N(CCF)S(C)(=O)=O)c1 (centres unmarked) [Compound 3027] | < 0.1 | 
11 | CNC(=O)c1c(-c2ccc(F)cc2)oc2cc(N(CCCF)S(C)(=O)=O)c(-c3cccc(C(=O)NCC(C)(C)CO)c3)cc12 [Compound 4017] | < 0.1 | 
12 | CNC(=O)c1c(-c2ccc(F)cc2)oc2cc(N(CCF)S(C)(=O)=O)c(-c3cccc(C(=O)NC(C4CC4)C4CC4)c3)cc12 [Compound 3010] | < 0.1 | 0.0056
13 | CNC(=O)c1c(-c2ccc(F)cc2)oc2cc(N(CC3CC3)S(C)(=O)=O)c(-c3cccc(C(=O)OC)c3)cc12 [Compound 2001] | < 0.1 | 
14 | CNC(=O)c1c(-c2ccc(F)cc2)oc2cc(N(CCF)S(C)(=O)=O)c(-c3cccc(C(=O)N[C@H](C)C(F)(F)F)c3)cc12 [Compound 3021] | < 0.1 | 
15 | CNC(=O)c1c(-c2ccc(F)cc2)oc2cc(N(CC3CC3)S(C)(=O)=O)c(-c3cccc(C(=O)NC(C)(C)C(F)(F)F)c3)cc12 [Compound 2003] | < 0.1 | 
16 | CNC(=O)c1c(-c2ccc(F)cc2)oc2cc(N(CCCF)S(C)(=O)=O)c(-c3cccc(C(=O)NC(C)(C)C)c3)cc12 [Compound 4011] | < 0.1 | 
17 | CNC(=O)c1c(-c2ccc(F)cc2)oc2cc(N(C(F)F)S(C)(=O)=O)c(-c3cccc(C(=O)O)c3)cc12 [Compound 6002] | > 1 | > 10
18 | CNC(=O)c1c(-c2ccc(F)cc2)oc2cc(N(CCF)S(C)(=O)=O)c(-c3cccc(C(=O)N4CCCC4C)c3)cc12 (centres unmarked) [Compound 3024] | < 0.1 | 
19 | CNC(=O)c1c(-c2ccc(F)cc2)oc2cc(N(CCC(F)(F)F)S(C)(=O)=O)c(-c3cccc(C(=O)NC(C)(C)C#N)c3)cc12 [Compound 9006] | < 0.1 | 
20 | CNC(=O)c1c(-c2ccc(F)cc2)oc2cc(N(CC#N)S(C)(=O)=O)c(-c3cccc(C(=O)NC(C)(C)C(F)(F)F)c3)cc12 [Compound 1002] | < 0.1 | 
21 | CNC(=O)c1c(-c2ccc(F)cc2)oc2cc(N(CCF)S(C)(=O)=O)c(-c3cccc(C(=O)N4CC[C@@H](NC(=O)OC(C)(C)C)C4)c3)cc12 [Compound 3038] | < 0.1 | 
22 | CNC(=O)c1c(-c2ccc(F)cc2)oc2cc(NCCCF)c(-c3cccc(C(=O)NC(C)(C)C#N)c3)cc12 [Compound 5003] | < 0.1 | 
23 | CNC(=O)c1c(-c2ccc(F)cc2)oc2cc(N(CCCF)S(C)(=O)=O)c(-c3cccc(C(=O)NC(CF)(CF)CF)c3)cc12 [Compound 4004] | < 0.1 | 
24 | CNC(=O)c1c(-c2ccc(F)cc2)oc2cc(N(CCF)S(C)(=O)=O)c(-c3cccc(C(=O)NCC(C)(C)C)c3)cc12 [Compound 3015] | < 0.1 | 
25 | CNC(=O)c1c(-c2ccc(F)cc2)oc2cc(N(CCF)S(C)(=O)=O)c(-c3cccc(C(=O)N4CCC[C@H]4C(=O)OC)c3)cc12 [Compound 3041] | 0.1 to 1 | 

Row | SMILES | EC50 (read-out: EC50 1b (class)) [µM] | EC50 (read-out: EC50 (uM) 1b) [µM]
26 | CNC(=O)c1c(-c2ccc(F)cc2)oc2cc(N(CCF)S(C)(=O)=O)c(-c3cccc(C(=O)NC(C)(C)CF)c3)cc12 [Compound 3013] | < 0.1 | 
27 | C#CC(C)(C)NC(=O)c1cccc(-c2cc3c(C(=O)NC)c(-c4ccc(F)cc4)oc3cc2N(CCCF)S(C)(=O)=O)c1 [Compound 4012] | < 0.1 | 0.008
28 | CNC(=O)c1c(-c2ccc(F)cc2)oc2cc(N(CCCF)S(C)(=O)=O)c(-c3cccc(C(=O)O)c3)cc12 [Compound 4002] | > 1 | 
29 | CNC(=O)c1c(-c2ccc(F)cc2)oc2cc(N(CCF)S(C)(=O)=O)c(-c3cccc(C(=O)NC(C)(C)C(F)(F)F)c3)cc12 [Compound 3003] | < 0.1 | 
30 | CNC(=O)c1c(-c2ccc(F)cc2)oc2cc(N(CC#N)S(C)(=O)=O)c(-c3cccc(C(=O)OC)c3)cc12 [Compound 1001] | < 0.1 | 0.0578
31 | CNC(=O)c1c(-c2ccc(F)cc2)oc2cc(N(CCC(F)(F)F)S(C)(=O)=O)c(-c3cccc(C(=O)O)c3)cc12 [Compound 9002] | > 1 | 
32 | CNC(=O)c1c(-c2ccc(F)cc2)oc2cc(N(CCCF)S(C)(=O)=O)c(-c3cccc(C(=O)NC(C)(C)CCO)c3)cc12 [Compound 4027] | < 0.1 | 
33 | CNC(=O)c1c(-c2ccc(F)cc2)oc2cc(N(CC(F)F)S(C)(=O)=O)c(-c3cccc(C(=O)OC)c3)cc12 [Compound 7001] | < 0.1 | 
34 | CNC(=O)c1c(-c2ccc(F)cc2)oc2cc(N(CCF)S(C)(=O)=O)c(-c3cccc(C(=O)N4CCC(C)(C)C4)c3)cc12 [Compound 3017] | < 0.1 | 0.0063
35 | CNC(=O)c1c(-c2ccc(F)cc2)oc2cc(N(CCF)S(C)(=O)=O)c(-c3cccc(C(=O)N4CCN(C(=O)OC(C)(C)C)CC4c4ccccc4)c3)cc12 (centres unmarked) [Compound 3031] | < 0.1 | 
36 | CNC(=O)c1c(-c2ccc(F)cc2)oc2cc(N(CCCF)S(C)(=O)=O)c(-c3cccc(C(=O)NCC(F)(F)F)c3)cc12 [Compound 4010] | < 0.1 | 
37 | CNC(=O)c1c(-c2ccc(F)cc2)oc2cc(N(C(F)F)S(C)(=O)=O)c(-c3cccc(C(=O)NC(CF)(CF)CF)c3)cc12 [Compound 6005] | < 0.1 | 
38 | CNC(=O)c1c(-c2ccc(F)cc2)oc2cc(N(CCF)S(C)(=O)=O)c(-c3cccc(C(=O)N4CCC[C@H]4C(=O)OC(C)(C)C)c3)cc12 [Compound 3029] | < 0.1 | 
39 | CNC(=O)c1c(-c2ccc(F)cc2)oc2cc(N(C(F)F)S(C)(=O)=O)c(-c3cccc(C(=O)NC(C)(C)C#N)c3)cc12 [Compound 6004] | < 0.1 | 
40 | CNC(=O)c1c(-c2ccc(F)cc2)oc2cc(N(CCC(F)(F)F)S(C)(=O)=O)c(-c3cccc(C(=O)NC(C)(C)C(F)(F)F)c3)cc12 [Compound 9004] | < 0.1 | 0.0106
41 | CNC(=O)c1c(-c2ccc(F)cc2)oc2cc(N(CCCF)S(C)(=O)=O)c(-c3cccc(C(=O)NC(C)(C)C#N)c3)cc12 [Compound 4024] | < 0.1 | 
42 | CNC(=O)c1c(-c2ccc(F)cc2)oc2cc(N(CCF)S(C)(=O)=O)c(-c3cccc(C(=O)N4CCC(c5ccc(F)cc5)C4)c3)cc12 (centres unmarked) [Compound 3034] | < 0.1 | 0.0117
43 | [2H]C([2H])([2H])C(NC(=O)c1cccc(-c2cc3c(C(=O)NC)c(-c4ccc(F)cc4)oc3cc2N(CC2CC2)S(C)(=O)=O)c1)(C([2H])([2H])[2H])C([2H])([2H])[2H] [Compound 2006] | < 0.1 | 
44 | CNC(=O)c1c(-c2ccc(F)cc2)oc2cc(N(CCF)S(C)(=O)=O)c(-c3cccc(C(=O)N4CCN(c5ccc(Cl)cc5)CC4)c3)cc12 [Compound 3020] | < 0.1 | 0.0094
45 | [2H]C([2H])([2H])C(NC(=O)c1cccc(-c2cc3c(C(=O)NC)c(-c4ccc(F)cc4)oc3cc2N(CCCF)S(C)(=O)=O)c1)(C([2H])([2H])[2H])C([2H])([2H])[2H] [Compound 4006] | < 0.1 | 
46 | CNC(=O)c1c(-c2ccc(F)cc2)oc2cc(N(CCCF)S(C)(=O)=O)c(-c3cccc(C(=O)NCC(F)(F)C(F)(F)F)c3)cc12 [Compound 4007] | < 0.1 | 0.0053
47 | CNC(=O)c1c(-c2ccc(F)cc2)oc2cc(N(CCF)S(C)(=O)=O)c(-c3cccc(C(=O)N4CCN(CC(C)C)CC4)c3)cc12 [Compound 3033] | < 0.1 | 
48 | CNC(=O)c1c(-c2ccc(F)cc2)oc2cc(N(CCF)S(C)(=O)=O)c(-c3cccc(C(=O)NCC(F)(F)C(F)(F)F)c3)cc12 [Compound 3012] | < 0.1 | 0.0032
49 | CNC(=O)c1c(-c2ccc(F)cc2)oc2cc(N(CC3CC3)S(C)(=O)=O)c(-c3cccc(C(=O)NC(C)(C)C#N)c3)cc12 [Compound 2005] | < 0.1 | 0.0147
